Here are results for one compound from patent publication US10239871B2, “Compounds and methods for regulating integrins” (ADHAERE PHARMACEUTICALS, INC., priority 2012, dated 2019).

The subject of experiment [1] is CD11b+ macrophages in injured arteries. Kind of experiment: Flow cytometric quantitation of arterial macrophages in injured arteries. The conditions noted are these: 7 days after balloon injury; LA1 1 mg/kg/d; ED7 1 and 3.3 mg/kg/d. It counts as in vivo, rat. The procedure: Agonist treated and control balloon-injured Fisher 344 rats were sacrificed 7 days post surgery at the onset of inflammation. The injured and non-injured iliac arteries were microdissected and digested with Collagenase/Elastase mix (Worthington Biochemical, NY) in DMEM containing 2% FBS for 2 hours at 37° C. The resulting single cell suspension was washed with cold PBS containing 2% FBS and filtered through […] sieve. Cells were re-suspended cold PBS containing 2% FBS at a concentration of 10^6 cells per 100 μl and stained with biotinylated anti-rat CD11b antibody (clone WT.5, BD Biosciences) for 1 hour at 4° C. […] Cells were washed twice with the assay buffer and analyzed using FACS II Canto cytometer and the data were analyzed using FlowJo (Tree Star Inc.) software. […]
Next, to determine whether either type of agonist (chemical LA1 and biologic activating antibody) has a therapeutic advantage over the other, a head-to-head comparison was performed using this in vivo model. […] Next, the arteries were analyzed to quantify the number of infiltrated macrophages in the presence of agonists LA1 or ED7 and compared it to vehicle treated animals. The arteries were harvested from animals 7 days after balloon injury and single cell suspensions were analyzed by flow cytometry (using anti-rat CD11b antibody WT.5) to quantitate CD11b+ macrophages in each sample. […]
(In flow cytometry, cells or beads pass a laser one at a time.)

Experiment [2] concerns the target CD11b/CD18 (Homo sapiens, UniProt P11215). Description: Flow cytometry with conformation reporter mAbs KIM127 and 24 on K562 WT cells. It counts as cell-based. Details: K562 cells stably transfected with plasmid encoding wild-type integrin CD11b/CD18; expressed in transfected cells. Conditions: LA1 15 uM, Mn2+ 1 mM; vs basal. The procedure: Flow cytometric analyses of K562 WT cells were performed according to published protocols. Briefly, cells were suspended in the assay buffer (Tris-buffered saline (TBS) containing 1 mM of ions Ca2+ and/or Mg2+ and 0.1% BSA). Cells ([…]) were incubated with primary mAb (1:100 dilution of IB4 ascites or the isotype controls, 1:50 […] and 24 and the relevant isotype controls, where incubations were performed at 37 °C) for 30 minutes. Subsequently, the cells were washed three times with the assay buffer and incubated with goat anti-mouse-APC (1 µg/ml, Invitrogen) for 20 minutes at 4° C. Cells were washed twice with the assay buffer and analyzed using FACSCaliber flow cytometer (BD Biosciences, CA), counting at least 10,000 events. Data was analyzed using the CellQuest software (BD Biosciences). Data shown is from one of at least three independent experiments.
Ligand binding induces extension of the integrin heterodimer and large, global conformational changes leading to outside-in signaling. Binding of activating antibodies also induces global conformational changes in the integrin heterodimer and such large conformational changes mimic those induced upon ligand binding. […] Thus, mAb KIM127 is often used as a reporter for the extended conformation of P2 integrins. […]

In experiment [3] the target is T1, CD11b/CD18 (Mus musculus, UniProt P05555).
T1 construct: that have constitutive CD11b/CD18 surface expression were used; host or cells: RAW 264.7 murine macrophage cell line
Description: Cell adhesion assay, RAW 264.7 cells on immobilized fibrinogen. It counts as cell-based, murine. The conditions noted are these: vs basal 1 mM Ca2+ and Mg2+. As for the experimental part: K562 cells stably transfected with plasmid encoding wild-type integrin CD11b/CD18 (K562 WT cells) have been described previously and were maintained in Iscove's Modified Dulbecco's Medium (IMDM) supplemented with 10% FBS and G418 (0.5 mg/ml). The murine macrophage cell line (RAW 264.7 cells) was obtained from ATCC and the cells were maintained in DMEM supplemented with 10% heat-inactivated FBS according to the manufacturer's instructions. The primary rat peritoneal macrophages were isolated from the wild type Fisher 344 rats that had been previously injected with 5 mL of Brewer's thioglycolate broth (Sigma-Aldrich). Macrophage purity was directly analyzed by single channel flow cytometry using rat macrophage specific monoclonal antibodies ED1 (AbD Serotec, Raleigh, N.C.), WT.5 (BD Biosciences) and His36 (BD Biosciences). Purity was typically >85%. Macrophages were used in assays immediately upon isolation.
Cell adhesion assays using K562 WT, murine RAW 264.7 cells and the primary rat macrophages were performed as previously described and used immobilized fibrinogen as the ligand of CD11b/CD18 [49]. […] The remaining adherent cells were fixed using 4% formaldehyde and quantified by imaging microscopy as previously described (22, 63). […]

T1 sequence (P05555 17-1153): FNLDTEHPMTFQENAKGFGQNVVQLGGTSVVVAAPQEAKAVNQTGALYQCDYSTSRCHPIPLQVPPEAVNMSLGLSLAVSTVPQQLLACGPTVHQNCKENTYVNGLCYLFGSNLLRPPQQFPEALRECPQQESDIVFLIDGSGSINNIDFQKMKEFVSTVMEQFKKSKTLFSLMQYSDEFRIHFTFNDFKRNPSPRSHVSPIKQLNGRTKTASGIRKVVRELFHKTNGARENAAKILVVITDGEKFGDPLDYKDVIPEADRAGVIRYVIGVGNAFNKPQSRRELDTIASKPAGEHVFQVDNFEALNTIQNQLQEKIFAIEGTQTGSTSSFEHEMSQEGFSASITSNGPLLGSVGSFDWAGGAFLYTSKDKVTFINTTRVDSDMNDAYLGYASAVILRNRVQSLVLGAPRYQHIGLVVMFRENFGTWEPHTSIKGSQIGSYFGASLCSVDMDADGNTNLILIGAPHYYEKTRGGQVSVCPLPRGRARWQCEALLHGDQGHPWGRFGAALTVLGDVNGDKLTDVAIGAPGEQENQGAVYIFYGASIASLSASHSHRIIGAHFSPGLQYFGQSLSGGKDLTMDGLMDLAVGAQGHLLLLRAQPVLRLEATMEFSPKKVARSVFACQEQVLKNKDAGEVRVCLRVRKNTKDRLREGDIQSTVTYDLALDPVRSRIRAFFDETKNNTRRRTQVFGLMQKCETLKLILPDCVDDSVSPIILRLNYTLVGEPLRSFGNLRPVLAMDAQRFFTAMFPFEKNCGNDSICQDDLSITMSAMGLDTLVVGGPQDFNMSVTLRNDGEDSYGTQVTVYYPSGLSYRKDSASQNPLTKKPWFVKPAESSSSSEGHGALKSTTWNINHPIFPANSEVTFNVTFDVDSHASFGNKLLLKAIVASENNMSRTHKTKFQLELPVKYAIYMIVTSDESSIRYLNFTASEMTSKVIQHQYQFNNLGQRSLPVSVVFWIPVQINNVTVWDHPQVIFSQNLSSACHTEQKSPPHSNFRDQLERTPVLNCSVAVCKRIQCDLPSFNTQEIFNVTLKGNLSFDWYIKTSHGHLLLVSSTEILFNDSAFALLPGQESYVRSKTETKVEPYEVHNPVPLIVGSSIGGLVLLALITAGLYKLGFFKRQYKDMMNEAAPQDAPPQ
T1 sequence (P11835 24-771 partner): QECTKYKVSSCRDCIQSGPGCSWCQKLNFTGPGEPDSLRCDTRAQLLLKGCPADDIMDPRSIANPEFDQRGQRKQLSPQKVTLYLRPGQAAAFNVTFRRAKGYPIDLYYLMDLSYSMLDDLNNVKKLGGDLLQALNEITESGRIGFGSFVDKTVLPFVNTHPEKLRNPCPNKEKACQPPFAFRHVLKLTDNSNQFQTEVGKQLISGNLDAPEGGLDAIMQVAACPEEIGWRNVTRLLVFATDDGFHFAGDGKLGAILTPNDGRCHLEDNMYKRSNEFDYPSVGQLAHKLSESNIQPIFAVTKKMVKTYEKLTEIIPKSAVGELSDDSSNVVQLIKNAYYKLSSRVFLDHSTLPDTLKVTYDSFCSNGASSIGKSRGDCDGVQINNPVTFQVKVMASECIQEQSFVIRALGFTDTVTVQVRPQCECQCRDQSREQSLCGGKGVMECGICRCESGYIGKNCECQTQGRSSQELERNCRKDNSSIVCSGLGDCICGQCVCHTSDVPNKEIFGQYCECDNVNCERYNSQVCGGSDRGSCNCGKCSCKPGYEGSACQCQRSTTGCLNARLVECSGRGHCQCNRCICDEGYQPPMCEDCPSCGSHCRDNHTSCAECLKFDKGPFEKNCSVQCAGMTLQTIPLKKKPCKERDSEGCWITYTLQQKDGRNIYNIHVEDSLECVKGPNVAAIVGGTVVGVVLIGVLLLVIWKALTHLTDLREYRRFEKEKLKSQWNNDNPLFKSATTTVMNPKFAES

For the compound `O=C(O)c1ccc(-c2ccc(/C=C3\SC(=S)N(Cc4ccccc4)C3=O)o2)cc1` [LA1], the “CD11b+ macrophages in injured arteries vs vehicle” value in experiment [1] is given as “significantly less CD11b/CD18 macrophages”. Moreover, at CD11b/CD18 [2], the “binding of conformation reporter KIM127” value is listed as “very small increase” and the “binding of conformation reporter mAb 24” value is recorded as “small increase”. At CD11b/CD18 [3], the “adhesion of RAW 264.7 cells to immobilized fibrinogen” value was “significantly and similarly increased the level of cell adhesion”.
